Common to all, as to assay type: cell-based
Test [1] relates to human dermal fibroblasts CCC-ESF-1. Nature of the test: Anti-fibrosis activity test: inhibition of proliferation of human dermal fibroblasts CCC-ESF-1 (CCK-8). The conditions noted are these: Homo sapiens, Fibroblast; CCC-ESF-1 cells, 48 h, CCK-8. In a few lines:
(§1)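 Exponentially growing cells, 2×10^4 cells/mL, attached 24 h. Dosed 48 h across concentrations (n=3). CCK-8 2 h → A450; IR vs blank; IC50.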

Test [2] has as its system mouse macrophages (RAW264.7). The test can be described thus: Lipopolysaccharide-induced NO secretion in macrophages (Griess). The conditions noted are these: Mus musculus, RAW264.7, 24 h, RAW264.7, LPS 1 μg/ml, a/b isomers given as first/second symbol, read-out: IC50 (μM), inhibition of lipopolysaccharide-induced NO secretion in macrophages. In a few lines: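 RAW264.7 cells in DMEM with 10% FBS were treated with test compounds at several concentrations, then stimulated with LPS (1 μg/ml) for 24 hours. Nitrite in the supernatant was measured by Griess reaction at 548 nm, and percent inhibition was calculated against blank-medium controls.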
(Griess reagent forms a coloured azo dye with nitrite.)

For test [3], the system named is human embryonic lung fibroblast IMR-90. The test can be described thus: Anti-fibrosis activity test: inhibition of proliferation of human embryonic lung fibroblast IMR-90 (CCK-8). The conditions noted are these: Homo sapiens; IMR-90 cells, 48 h, CCK-8. In a few lines: as §1
A further test concerns BHK-21 cells. Nature of the test: Anti-fibrosis activity test: inhibition of BHK-21 cell proliferation (CCK-8). The note with it: Mesocricetus auratus, BHK-21, 48 h, 48 h, CCK-8. In a few lines:
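Cells seeded at 2×10^4 cells/mL, allowed to adhere 24 hours, then exposed to graded compound concentrations in triplicate for 48 hours at 37° C, 5% CO2. CCK-8 added for 2 hours, absorbance read at 450 nm; inhibition versus blank control used to derive IC50. Pirfenidone served as positive control.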

In test [4] the test system is human hepatic stellate cells LX-2. Nature of the test: Anti-fibrosis activity test: inhibition of proliferation of human hepatic stellate cells LX-2 (CCK-8). The note with it: Homo sapiens, LX-2, 48 h, LX-2 cells, 48 h, CCK-8. In a few lines:
as §1

In test [5] the test system is human lung fibroblasts HFL1. The test can be described thus: Anti-fibrosis activity test: inhibition of proliferation of human lung fibroblasts HFL1 (CCK-8). The note with it: Homo sapiens, HFL1, 48 h, HFL1 cells, 48 h, CCK-8. In a few lines: as §1
Test [6] has as its system cardiac fibroblast RAT-iCell-C002. The test can be described thus: Anti-fibrosis activity test: inhibition of proliferation of cardiac fibroblast RAT-iCell-C002 (CCK-8). The note with it: Cardiac fibroblast, 48 h, RAT-iCell-C002 cells, CCK-8. In a few lines: as §1
For test [7], the system named is human fibrosarcoma cells HT-1080. The test can be described thus: Anti-fibrosis activity test: inhibition of proliferation of human fibrosarcoma cells HT-1080 (CCK-8). The note with it: Homo sapiens, HT-1080, 48 h, HT-1080 cells, 48 h, CCK-8. In a few lines:
as §1

One may read the IC50 as the concentration that inhibits the measured activity by half.

Consider `Cc1ccc2c(O)c3c(nc2c1)C(=O)n1cccc1-3` [Compound 778b, 11-hydroxy-8-methyl-5H-pyrrolizino[2,1-b]quinolin-5-one], for which the IC50 in test [1] lay in the range of 0.05 to 5 mM; in test [2], 1 to 10 µM; in test [3], 0.05 to 5 mM; with BHK-21 cells, 0.05 to 5 mM; in test [4], 0.05 to 5 mM; in test [5], 0.05 to 5 mM. Moreover, the IC50 in test [6] and in test [7] was 0.05 to 5 mM each time.
As to `Cc1cccc2c(=O)c3c([nH]c12)C(=O)n1cccc1-3` [Compound 779a, 7-Methyl-5H-pyrrolizino[2,1-b]quinoline-5,11(6H)-dione], the IC50 in test [1] lay within 0.05 to 5 mM; in test [2], 10 to 50 µM; in test [3], 0.05 to 5 mM; in the test on BHK-21 cells it was 0.05 to 5 mM; in test [4], 0.05 to 5 mM; in test [5] it was 0.05 to 5 mM. For the same molecule, the IC50 in test [6] and in test [7] was 0.05 to 5 mM each time.
Consider `Cc1cccc2c(O)c3c(nc12)C(=O)n1cccc1-3` [Compound 779b, 11-hydroxy-7-methyl-5H-pyrrolizino[2,1-b]quinolin-5-one], for which the IC50 was in the range of 0.05 to 5 mM in test [1]; 1 to 10 µM in test [2]; 0.05 to 5 mM in test [3]; 0.05 to 5 mM in the test with BHK-21 cells; 0.05 to 5 mM in test [4]; 0.05 to 5 mM in test [5]. Also, the IC50 in test [6] and in test [7] was 0.05 to 5 mM throughout.
As for `Cc1cc(C)c2[nH]c3c(c(=O)c2c1)-c1cccn1C3=O` [Compound 780a, 7,9-Dimethyl-5H-pyrrolizino[2,1-b]quinoline-5,11(6H)-dione], the IC50 in test [1] lay in the range of 0.05 to 5 mM; in test [2] it was 10 to 50 µM; in test [3] it was 0.05 to 5 mM; with BHK-21 cells it was 0.05 to 5 mM; in test [4], 0.05 to 5 mM; in test [5] it was 0.05 to 5 mM. The IC50 in test [6] and in test [7] was 0.05 to 5 mM in each case.
Regarding `Cc1cc(C)c2nc3c(c(O)c2c1)-c1cccn1C3=O` [Compound 780b, 11-hydroxy-7,9-dimethyl-5H-pyrrolizino[2,1-b]quinolin-5-one], the IC50 fell in the range of 0.05 to 5 mM in test [1]; 1 to 10 µM in test [2]; 0.05 to 5 mM in test [3]; 0.05 to 5 mM with BHK-21 cells; 0.05 to 5 mM in test [4]; 0.05 to 5 mM in test [5]. For the same molecule, the IC50 in test [6] and in test [7] was 0.05 to 5 mM each time.
For the molecule `Cc1cc2[nH]c3c(c(=O)c2cc1C)-c1cccn1C3=O` [Compound 781a, 8,9-Dimethyl-5H-pyrrolizino[2,1-b]quinoline-5,11(6H)-dione], the IC50 in test [1] was 0.05 to 5 mM; in test [2], 10 to 50 µM; in test [3], 0.05 to 5 mM; with BHK-21 cells it was 0.05 to 5 mM; in test [4], 0.05 to 5 mM; in test [5], 0.05 to 5 mM. Moreover, the IC50 in test [6] and in test [7] was 0.05 to 5 mM each time.
For the molecule `Cc1cc2nc3c(c(O)c2cc1C)-c1cccn1C3=O` [Compound 781b, 11-hydroxy-8,9-dimethyl-5H-pyrrolizino[2,1-b]quinolin-5-one], the IC50 in test [1] lay in the range of 0.05 to 5 mM; in test [2], 1 to 10 µM; in test [3] it was 0.05 to 5 mM; in the test on BHK-21 cells it was 0.05 to 5 mM; in test [4], 0.05 to 5 mM; in test [5], 0.05 to 5 mM. For the same molecule, the IC50 in test [6] and in test [7] was 0.05 to 5 mM in each case.
On to `Cc1cc(C)c2c(=O)c3c([nH]c2c1)C(=O)n1cccc1-3` [Compound 782a, 8,10-Dimethyl-5H-pyrrolizino[2,1-b]quinoline-5,11(6H)-dione], for which the IC50 in test [1] lay within 0.05 to 5 mM; in test [2] it was 10 to 50 µM; in test [3], 0.05 to 5 mM; in the test on BHK-21 cells, 0.05 to 5 mM; in test [4], 0.05 to 5 mM; in test [5] it was 0.05 to 5 mM. The IC50 in test [6] and in test [7] was 0.05 to 5 mM in each case.
With `Cc1cc(C)c2c(O)c3c(nc2c1)C(=O)n1cccc1-3` [Compound 782b, 11-hydroxy-8,10-dimethyl-5H-pyrrolizino[2,1-b]quinolin-5-one], the IC50 in test [1] is 0.05 to 5 mM; in test [2] it was 1 to 10 µM; in test [3], 0.05 to 5 mM; with BHK-21 cells it was 0.05 to 5 mM; in test [4] it was 0.05 to 5 mM; in test [5], 0.05 to 5 mM. The IC50 in test [6] and in test [7] was 0.05 to 5 mM each time.
As for `Cc1ccc(C)c2c(=O)c3c([nH]c12)C(=O)n1cccc1-3` [Compound 783a, 7,10-Dimethyl-5H-pyrrolizino[2,1-b]quinoline-5,11(6H)-dione], the IC50 in test [1] was 0.05 to 5 mM; in test [2], 1 to 10 µM; in test [3], 0.05 to 5 mM; in the test with BHK-21 cells, < 0.05 mM; in test [4], 0.05 to 5 mM; in test [5], 0.05 to 5 mM. The IC50 in test [6] and in test [7] was 0.05 to 5 mM in each case.
For the molecule `Cc1ccc(C)c2c(O)c3c(nc12)C(=O)n1cccc1-3` [Compound 783b, 11-hydroxy-7,10-dimethyl-5H-pyrrolizino[2,1-b]quinolin-5-one], the IC50 in test [1] was in the range of 0.05 to 5 mM; in test [2], 1 to 10 µM; in test [3], 0.05 to 5 mM; with BHK-21 cells it was 0.05 to 5 mM; in test [4], 0.05 to 5 mM; in test [5], 0.05 to 5 mM. Also, the IC50 in test [6] and in test [7] was 0.05 to 5 mM each time.
Consider `O=C1c2c(c(=O)c3ccccc3n2CCN2CCCCC2)-c2cccn21` [Compound 784a, 6-(2-(Piperidin-1-yl)ethyl)-5H-pyrrolizino[2,1-b]quinoline-5,11(6H)-dione], for which the IC50 in test [1] is 0.05 to 5 mM; in test [2], 10 to 50 µM; in test [3], 0.05 to 5 mM; with BHK-21 cells, < 0.05 mM; in test [4], 0.05 to 5 mM; in test [5], 0.05 to 5 mM. The IC50 in test [6] and in test [7] was 0.05 to 5 mM each time.
As for `O=C1c2nc3ccccc3c(OCCN3CCCCC3)c2-c2cccn21` [Compound 784b, 11-(2-(piperidin-1-yl)ethoxy)-5H-pyrrolizino[2,1-b]quinolin-5-one], the IC50 is 0.05 to 5 mM in test [1]; 1 to 10 µM in test [2]; 0.05 to 5 mM in test [3]; 0.05 to 5 mM with BHK-21 cells; 0.05 to 5 mM in test [4]; 0.05 to 5 mM in test [5]. Also, the IC50 in test [6] and in test [7] was 0.05 to 5 mM in each case.
Regarding `O=C1c2c(c(=O)c3ccccc3n2CCN2CCOCC2)-c2cccn21` [Compound 785a, 6-(2-Morpholinoethyl)-5H-pyrrolizino[2,1-b]quinoline-5,11(6H)-dione], the IC50 in test [1] lay within 0.05 to 5 mM; in test [2], 1 to 10 µM; in test [3], 0.05 to 5 mM; in the test with BHK-21 cells, 0.05 to 5 mM; in test [4] it was 0.05 to 5 mM; in test [5] it was 0.05 to 5 mM. Besides, the IC50 in test [6] is 0.05 to 5 mM; in test [7], < 0.05 mM.
As to `O=C1c2nc3ccccc3c(OCCN3CCOCC3)c2-c2cccn21` [Compound 785b, 11-(2-morpholinoethoxy)-5H-pyrrolizino[2,1-b]quinolin-5-one], the IC50 in test [1] was in the range of 0.05 to 5 mM; in test [2], 1 to 10 µM; in test [3], 0.05 to 5 mM; in the test with BHK-21 cells, 0.05 to 5 mM; in test [4], 0.05 to 5 mM; in test [5] it was 0.05 to 5 mM. In addition, the IC50 in test [6] and in test [7] was 0.05 to 5 mM throughout.
Regarding `O=C1c2c(c(=O)c3ccccc3n2CCCN2CCCCC2)-c2cccn21` [Compound 786a, 6-(3-(Piperidin-1-yl)propyl)-5H-pyrrolizino[2,1-b]quinoline-5,11(6H)-dione], the IC50 in test [1] fell in the range of 0.05 to 5 mM; in test [2], 1 to 10 µM; in test [3], 0.05 to 5 mM; in the test with BHK-21 cells it was 0.05 to 5 mM; in test [4], 0.05 to 5 mM; in test [5] it was 0.05 to 5 mM. Further, the IC50 in test [6] and in test [7] was 0.05 to 5 mM in each case.
With `O=C1c2nc3ccccc3c(OCCCN3CCCCC3)c2-c2cccn21` [Compound 786b, 11-(3-(piperidin-1-yl)propoxy)-5H-pyrrolizino[2,1-b]quinolin-5-one], the IC50 fell in the range of 0.05 to 5 mM in test [1]; 1 to 10 µM in test [2]; 0.05 to 5 mM in test [3]; 0.05 to 5 mM in the test with BHK-21 cells; 0.05 to 5 mM in test [4]; 0.05 to 5 mM in test [5]. For the same molecule, the IC50 in test [6] and in test [7] was 0.05 to 5 mM throughout.
As to `O=C1c2c(c(=O)c3ccccc3n2CCCCN2CCCCC2)-c2cccn21` [Compound 788a, 6-(4-(Piperidin-1-yl)butyl)-5H-pyrrolizino[2,1-b]quinoline-5,11(6H)-dione], the IC50 in test [1] was in the range of 0.05 to 5 mM; in test [2], 1 to 10 µM; in test [3] it was 0.05 to 5 mM; with BHK-21 cells, 0.05 to 5 mM; in test [4], 0.05 to 5 mM; in test [5] it was 0.05 to 5 mM. Also, the IC50 in test [6] and in test [7] was 0.05 to 5 mM each time.
